Measurements: patent US20050203124A1, “Compounds for the sustained reduction of body weight” (Boehringer Ingelheim International GmbH, priority 2004, published 2005)

Experiment: Clinical studies: monitoring of body weight (vital sign) under multiple ascending doses
Type: in vivo, patients
From the text: Clinical Studies have been carried out in order to compare the maintenance doses of the compounds of formula IA, including its metabolite IB, that were used in 3 studies.
The studies were randomized, double-blind, placebo-controlled per ascending dose group. The studies were designed to assess the safety, tolerability, phamacokinetics (PK), and preliminary efficacy of multiple ascending doses of the compound of formula IA in patients with possible Alzheimer's Disease (AD).
Two studies were performed consecutively with 0.125/0.25 and 0.5/1.0 mg of the compound of formula IA daily every morning to assess the safety and preliminary efficacy of multiple given for 28 days in those patients. After the completion of the first two studies a […] was initiated in elderly volunteers in order to investigate the safety and PK of a median dose of 0.75 mg of the compound of formula IA daily in the morning than were used in the first two studies. Depending on the maintenance dose an at least double loading dose was administrated for up to 6 days.
To determine the safety, tolerability of ascending multiple doses of the compound of formula IA (5 dose levels) given for 28 days, and to determine the preliminary multiple dose (4-week) pharmacokinetics (PK) of the compound of formula IA. […]

Structure (SMILES): CCOC[C@H]1C2CCC(C[C@@H]1c1ccc(Cl)c(Cl)c1)N2C (some centres unmarked) [Compound of formula IA]
- body weight under treatment (change in weight, FIGS. 3 and 4) (patients with possible Alzheimer's Disease / elderly volunteers, aged 55 to 80, 0.125 to 1.0 mg daily for 28 days, placebo-controlled): clearly reduces the bodyweight
- body weight after the treatment has been stopped (change in weight, FIGS. 5 and 6) (same studies, follow-up 56 to 70 days after beginning of the 28-day treatment): still further reduced
